Earlier results in US20220265733A1, “COMPOSITIONS COMPRISING BACTERIAL STRAINS” (4D Pharma Research Limited, priority 2019, published 2022).

Columns and labels:
class I HDAC = details: reference [70]
DSS-colitis murine model = details: reference [70]

CCCC(CCC)C(=O)O [valproic acid]
HDAC inhibition (class I HDAC): associated with class I HDAC inhibition
colitis (DSS-colitis murine model): amelioration
